Reference: patent US9499614B2, “Methods for modulating protein glycosylation profiles of recombinant protein therapeutics using monosaccharides and oligosaccharides” (AbbVie, Inc., priority 2013, dated 2016)

Columns and labels:
[1] = system: Cell Line 1; assay: N-glycan oligosaccharide profiling, Cell Line 1 in 3 L laboratory-scale bioreactors; assay type: cell-based, Chinese Hamster; conditions: 50 mM supplement
Protocol: Purified antibodies subjected to additional analytical characterization were purified using MabSelect™ Protein A (GE Healthcare, Piscataway, N.J.) using a low pH, step elution gradient, followed by buffer exchange using Corning Lifesciences (Tewksbury, Mass.) Spin Concentrator X UF columns according to the manufacturers' recommended procedures.
Approximately 200 μg of Protein A purified samples from Cell Lines 1 and 2 were treated with N-glycanase at 37° C. overnight to remove the N-glycans from the protein. The protein was precipitated and the supernatant was taken for subsequent chemical derivatization of the reducing end of the released glycans with 2-aminobenzamide (2-AB) dye. Following the derivatization step, the excess label was removed using clean up cartridges and the samples were analyzed using normal phase HPLC with fluorescent detection. Mobile phase A was 100% acetonitrile and mobile phase B was 50 mM ammonium formate pH 4.4. The glycans were eluted from a polyamide column (Prozyme, Hayward, Calif.) using a shallow gradient. The labeled glycans were detected using a fluorescence detector with an excitation wavelength of 330 nm and an emission wavelength of 420 nm.
(§1) 3 L scale-down model bioreactors were utilized to verify the impact of select sugars on the resulting protein glycosylation profiles. The concentration of the sucrose and tagatose was chosen to minimize any potential adverse impact on cell growth and productivity, but still facilitate a measurable modulation of the glycosylation profile. Cell culture process performance indicators were monitored and measured throughout the respective cultures. Viable cell density, cell viability, lactate, pCO2, osmolality, harvest titer, and harvest N-glycan oligosaccharide data were measured and reported.
3 L scale laboratory bioreactors were utilized to verify the impact of sucrose, tagatose, or fructose on protein glycosylation profiles. Concentrations of the sugars were chosen to minimize any potential adverse impacts on cell growth and productivity, but still facilitate a measurable impact on the glycoform profile. Cell culture process performance indicators were monitored and measured throughout the study. Viable cell density, cell viability, lactate, pCO2, osmolality, harvest titer, and harvest N-glycan oligosaccharide data was measured and reported.

[2] = system: Cell Line 1; assay: 3 L laboratory-scale bioreactor culture of Cell Line 1, cell culture performance; assay type: cell-based, Chinese Hamster
Protocol: Two recombinant Chinese Hamster Ovary (CHO) cell lines expressing two different humanized monoclonal antibodies (Antibody 1, Antibody 2) were evaluated in two different culture vessels (shaker flasks and laboratory scale bioreactors). Both cell lines were of CHO DUX-B11 origin based on a dhfr (dihydrofolate reductase) expression system. Both cell lines were cultured in the same chemically defined basal media (CDBM), with Cell Line 1 also utilizing a chemically-defined feed media (CDFM). Each of the respective media were supplemented with selected monosaccharides and oligosaccharides to evaluate their potential impact on the resulting N-glycan oligosaccharide profile. In preparing the cultures, the cell lines were serially expanded through separate seed train inoculums to generate enough cells for inoculation.
(§2) Viable cell density (VCD) and cell viability values were measured through trypan blue exclusion via Cedex automated cell counters (Roche Applied Science, Indianapolis, Ind.), glucose and lactate values were measured with a ABL-805 (Radiometer Medical, Denmark) blood gas analyzer. Offline pH, dissolved oxygen (DO), and pCO2 measurements were performed with a ABL-805 (Radiometer Medical, Denmark) blood gas analyzer. Osmolality was measured on a Multi-Osmette 2430 osmometer (Precision Systems, Natick, Mass.).
Antibody titers were measured from crude cell culture harvests on a Poros A™ (Life Technologies, Carlsbad, Calif.) affinity column using an Agilent (Santa Clara, Calif.) 1200 Series HPLC, or equivalent, operating with a low pH, step elution gradient with detection at 280 nm. Absolute concentrations were assigned with respect to reference standard calibration curves.
as §1
Two recombinant Chinese Hamster Ovary (CHO) cell lines expressing two different recombinant glycoproteins were evaluated in two different cultures vessels (shaker flasks and 3 L laboratory scale bioreactors). Cell Line 1 expressed Antibody 1, Cell Line 2 expressed Dual Variable Domain Immunoglobulin 1 (DVD 1) and Cell Line 3 expressed Antibody 2. Antibodies 1 and 2 are IgG1 proteins, and DVD 1 is an immunoglobulin with two variable domains as documented previously (Wu C. et al., (2007) Nat. Biotechnol 25(11):1290-1297). All cell lines were of CHO DUX-B11 origin based on a dhfr (dihydrofolate reductase) expression system. All cell lines were cultured in the same chemically defined basal media. Cell lines 1 and 2 were fed with the same chemically-defined feed media, but Cell Line 1 was fed media that was formulated at a 50% higher concentration. Each of the respective media were supplemented with either sucrose or tagatose to evaluate their potential impact on the resulting N-glycan oligosaccharide profile. All sugars were purchased from Sigma-Aldrich (St. Louis, Mo.). In preparation of the cultures, the cell lines were serially expanded through separate seed train inoculums to generate enough cells for inoculation.
as §2, with “performed with an ABL-805 (Radiometer” for “performed with a ABL-805 (Radiometer”, “gas analyzer. […]” for “gas analyzer. Osmolality was measured on a Multi-Osmette 2430 osmometer (Precision Systems, Natick, Mass.).”

O=C(CO)[C@@H](O)[C@H](O)[C@H](O)CO [fructose, reference compound]
changes in protein glycosylation compared to the control [1]: did not facilitate any significant changes in protein glycosylation
Osmolality ([2]; 50 mM supplement vs control): only slightly higher
cell viability ([2]; 50 mM supplement vs control): no impact
viable cell density ([2]; 50 mM supplement vs control): no impact
final harvest titer ratio ([2]; 50 mM supplement, relative to unsupplemented control): 0.81
